Data reported in patent US20240384350A1, “METHODS OF TREATING CANCER WITH KINASE INHIBITORS” (BOARD OF REGENTS, THE UNIVERSITY OF TEXAS SYSTEM, priority 2021, published 2024).

Experiments:
Test in all cases: Ba/F3 drug screening, Cell Titer Glo, IC50 Mut/WT
Type in all cases: cell-based
[1] = molecular target: T1, EGFR A763insFQEA (Homo sapiens, UniProt P00533, INS763FQEA); settings: Classical-Like, 72 hours
T1 construct: expressed in transfected cells; host or cells: Ba/F3 cells, retroviral pBabe-Puro vector
Protocol: (§1) Data represent the ratio of the IC50 value for a given TKI for cells with a classical-like EGFR mutation to the IC50 value for cells with wildtype EGFR.
(§2) Ba/F3 cell generation, drug screening, and IC50 approximations. Ba/F3 cells were obtained as a gift from Dr. Gordon Mills (MD Anderson Cancer Center), and maintained in RPMI (Sigma) containing 10% FBS, 1% penicillin/streptomycin, and 10 ng/ml recombinant mIL-3 (R&D Biosystems). To establish stable Ba/F3 cell lines, Ba/F3 cells were transduced with retroviruses containing mutant EGFR plasmids for 12-24 hours.
(§3) After 48-72 hours of transduction, 2 μg/ml puromycin (Invitrogen) was added to Ba/F3 cell lines in complete RPMI. To select for EGFR positive cell lines, cells were stained with PE-EGFR (Biolegend) and sorted by FACS. After sorting, EGFR positive cells were maintained in RPMI containing 10% FBS, 1% penicillin/streptomycin, and 1 ng/ml EGF to support cell viability. […] Shortly, cells were plated in 384-well plates (Greiner Bio-One) at 2000-3000 cells per well in technical triplicate. Seven different concentrations of TKIs or DMSO vehicle were added to reach a final volume of 40 μL per well. After 72 hours, 11 μL of Cell Titer Glo (Promega) was added to each well. Plates were incubated for a minimum of 10 minutes, and bioluminescence was determined using a FLUOstar OPTIMA plate reader (BMG LABTECH). Raw bioluminescence values were normalized to DMSO control treated cells, and values were plotted in GraphPad Prism. […] Drug screens were performed in technical triplicate on each plate and either duplicate or triplicate biological replicates.

[2] = molecular target: T2, EGFR R776H (Homo sapiens, UniProt P00533, R776H)
T2 construct: host or cells: Ba/F3
Protocol: (§4) Data represent the ratio of the IC50 value for a given TKI for cells with a PACC EGFR mutation to the IC50 value for cells with wildtype EGFR.
as §2
(§5) After 48-72 hours of transduction, 2 μg/ml puromycin (Invitrogen) was added to Ba/F3 cell lines in complete RPMI. To select for EGFR positive cell lines, cells were stained with PE-EGFR (Biolegend) and sorted by FACS. After sorting, EGFR positive cells were maintained in RPMI containing 10% FBS, 1% penicillin/streptomycin, and 1 ng/ml EGF to support cell viability. Drug screening was performed as previously described^41,42. Shortly, cells were plated in 384-well plates (Greiner Bio-One) at 2000-3000 cells per well in technical triplicate. Seven different concentrations of TKIs or DMSO vehicle were added to reach a final volume of 40 μL per well. After 72 hours, 11 μL of Cell Titer Glo (Promega) was added to each well. Plates were incubated for a minimum of 10 minutes, and bioluminescence was determined using a FLUOstar OPTIMA plate reader (BMG LABTECH). Raw bioluminescence values were normalized to DMSO control treated cells, and values were plotted in GraphPad Prism. […] Drug screens were performed in technical triplicate on each plate and either duplicate or triplicate biological replicates.

[3] = molecular target: T3, EGFR L858R/T790M/C797S (Homo sapiens, UniProt P00533, C797S/L858R/T790M); settings: T790M-like-3R, 72 hours
T3 construct: expressed in transfected cells; host or cells: Ba/F3
Protocol: (§6) Data represent the ratio of the IC50 value for a given TKI for cells with a T790M-like-3R EGFR mutation to the IC50 value for cells with wildtype EGFR.
as §2
(§7) After 48-72 hours of transduction, 2 μg/ml puromycin (Invitrogen) was added to Ba/F3 cell lines in complete RPMI. To select for EGFR positive cell lines, cells were stained with PE-EGFR (Biolegend) and sorted by FACS. After sorting, EGFR positive cells were maintained in RPMI containing 10% FBS, 1% penicillin/streptomycin, and 1 ng/ml EGF to support cell viability. […] Shortly, cells were plated in 384-well plates (Greiner Bio-One) at 2000-3000 cells per well in technical triplicate. Seven different concentrations of TKIs or DMSO vehicle were added to reach a final volume of 40 μL per well. After 72 hours, 11 μL of Cell Titer Glo (Promega) was added to each well. Plates were incubated for a minimum of 10 minutes, and bioluminescence was determined using a FLUOstar OPTIMA plate reader (BMG LABTECH). Raw bioluminescence values were normalized to DMSO control treated cells, and values were plotted in GraphPad Prism. […] Drug screens were performed in technical triplicate on each plate and either duplicate or triplicate biological replicates. […] Statistical differences between groups were determined by ANOVA as described in the figure legends.

[4] = molecular target: T4, EGFR Ex19del G796S (Homo sapiens, UniProt P00533, DEL746-750/G796S)
T4 construct: expressed in transfected cells; host or cells: Ba/F3
Protocol: as §4, §2, §5

[5] = molecular target: T5, EGFR Ex19del G724S (Homo sapiens, UniProt P00533, DEL746-750/G724S)
T5 construct: expressed in transfected cells; host or cells: Ba/F3

[6] = molecular target: T6, EGFR L833F (Homo sapiens, UniProt P00533, L833F); settings: Classical-Like, 72 hours
T6 construct: expressed in transfected cells; host or cells: Ba/F3 cells, retroviral pBabe-Puro vector

[7] = molecular target: T7, EGFR T725M (Homo sapiens, UniProt P00533, T725M); settings: Classical-Like, 72 hours
T7 construct: expressed in transfected cells; host or cells: Ba/F3 cells, retroviral pBabe-Puro vector (vector made by GeneScript from EGFR WT)

[8] = molecular target: T8, EGFR L858R (Homo sapiens, UniProt P00533, L858R); settings: Classical-Like, 72 hours
T8 construct: expressed in transfected cells; host or cells: Ba/F3 cells, retroviral pBabe-Puro vector

[9] = molecular target: T9, EGFR S768dupSVD (Homo sapiens, UniProt P00533, DUP768-770); settings: Ex20, 72 hours
T9 construct: expressed in transfected cells; host or cells: Ba/F3 cells, retroviral pBabe-Puro vector
Protocol: (§8) Data represent the ratio of the IC50 value for a given TKI for cells with an ex20ins EGFR mutation to the IC50 value for cells with wildtype EGFR.
as §2
(§9) After 48-72 hours of transduction, 2 μg/ml puromycin (Invitrogen) was added to Ba/F3 cell lines in complete RPMI. To select for EGFR positive cell lines, cells were stained with PE-EGFR (Biolegend) and sorted by FACS. After sorting, EGFR positive cells were maintained in RPMI containing 10% FBS, 1% penicillin/streptomycin, and 1 ng/ml EGF to support cell viability. Drug screening was performed as previously described^41,42. Shortly, cells were plated in 384-well plates (Greiner Bio-One) at 2000-3000 cells per well in technical triplicate. Seven different concentrations of TKIs or DMSO vehicle were added to reach a final volume of 40 μL per well. After 72 hours, 11 μL of Cell Titer Glo (Promega) was added to each well. Plates were incubated for a minimum of 10 minutes, and bioluminescence was determined using a FLUOstar OPTIMA plate reader (BMG LABTECH). Raw bioluminescence values were normalized to DMSO control treated cells, and values were plotted in GraphPad Prism. […] Drug screens were performed in technical triplicate on each plate and either duplicate or triplicate biological replicates. […] Statistical differences between groups were determined by ANOVA as described in the figure legends.

[10] = molecular target: T10, EGFR E709K L858R (Homo sapiens, UniProt P00533, E709K/L858R); settings: Classical-Like, 72 hours
T10 construct: expressed in transfected cells; host or cells: Ba/F3 cells, retroviral pBabe-Puro vector

[11] = molecular target: T11, EGFR Ex19del T854I (Homo sapiens, UniProt P00533, DEL746-750/T854I)
T11 construct: expressed in transfected cells; host or cells: Ba/F3 (retroviral transduction, pBabe-Puro based vectors)
Protocol: as §4, §2, §5

[12] = molecular target: T12, EGFR Ex19del/T790M/G724S (Homo sapiens, UniProt P00533, DEL746-750/G724S/T790M); settings: T790M-like-3S, 72 hours
T12 construct: expressed in transfected cells; host or cells: Ba/F3
Protocol: (§10) Data represent the ratio of the IC50 value for a given TKI for cells with a T790M-like-3S EGFR mutation to the IC50 value for cells with wildtype EGFR.
as §2, §5

[13] = molecular target: T13, EGFR Ex19del/C797S (Homo sapiens, UniProt P00533, C797S/DEL746-750)
T13 construct: expressed in transfected cells; host or cells: Ba/F3

[14] = molecular target: T14, EGFR L858R/V834L (Homo sapiens, UniProt P00533, L858R/V834L); settings: Classical-Like, 72 hours
T14 construct: expressed in transfected cells; host or cells: Ba/F3 cells, retroviral pBabe-Puro vector

[15] = molecular target: T15, EGFR L718Q T790M (Homo sapiens, UniProt P00533, L718Q/T790M); settings: T790M-like-3R, 72 hours
T15 construct: expressed in transfected cells; host or cells: Ba/F3
Protocol: as §6, §2, §7

[16] = molecular target: T16, EGFR S720P (Homo sapiens, UniProt P00533, S720P); settings: Classical-Like, 72 hours
T16 construct: expressed in transfected cells; host or cells: Ba/F3 cells, retroviral pBabe-Puro vector (vector made by GeneScript from EGFR WT)
Protocol: as §1, §2, §3

[17] = molecular target: T17, EGFR A767insASV (Homo sapiens, UniProt P00533, DUP767-769); settings: Ex20, 72 hours
T17 construct: expressed in transfected cells; host or cells: Ba/F3 cells, retroviral pBabe-Puro vector
Protocol: as §8, §2, §9

[18] = molecular target: T18, EGFR Ex19del L718V (Homo sapiens, UniProt P00533, DEL746-750/L718V)
T18 construct: expressed in transfected cells; host or cells: Ba/F3
Protocol: as §4, §2, §5

[19] = molecular target: T19, EGFR Ex19del T790M C797S (Homo sapiens, UniProt P00533, C797S/DEL746-750/T790M); settings: T790M-like-3R, 72 hours
T19 construct: expressed in transfected cells; host or cells: Ba/F3
Protocol: as §6, §2, §7

[20] = molecular target: T20, EGFR L858R S784F (Homo sapiens, UniProt P00533, L858R/S784F); settings: Classical-Like, 72 hours
T20 construct: expressed in transfected cells; host or cells: Ba/F3 cells, retroviral pBabe-Puro vector (vector made by GeneScript from EGFR L858R)
Protocol: as §1, §2, §3

[21] = molecular target: T21, EGFR L861R (Homo sapiens, UniProt P00533, L861R); settings: Classical-Like, 72 hours
T21 construct: expressed in transfected cells; host or cells: Ba/F3 cells, retroviral pBabe-Puro vector (vector made by GeneScript from EGFR WT)
Protocol: as §1, §2, §3

[22] = molecular target: T22, EGFR H773insNPH (Homo sapiens, UniProt P00533, INS773NPH); settings: Ex20, 72 hours
T22 construct: expressed in transfected cells; host or cells: Ba/F3 cells, retroviral pBabe-Puro vector
Protocol: as §8, §2, §9

[23] = molecular target: T23, EGFR D770insNPG (Homo sapiens, UniProt P00533, INS770NPG); settings: Ex20, 72 hours
T23 construct: expressed in transfected cells; host or cells: Ba/F3 cells, retroviral pBabe-Puro vector

[24] = molecular target: T24, EGFR Ex19del T790M (Homo sapiens, UniProt P00533, DEL746-750/T790M); settings: T790M-like-3S, 72 hours
T24 construct: expressed in transfected cells; host or cells: Ba/F3
Protocol: as §10, §2, §5

[25] = molecular target: T25, EGFR L747_K754del insATSPE (Homo sapiens, UniProt P00533, DEL747-749/K754E); settings: T790M-like-3S, 72 hours
T25 construct: expressed in transfected cells; host or cells: Ba/F3 cells, retroviral pBabe-Puro vector

[26] = molecular target: T26, EGFR L747S (Homo sapiens, UniProt P00533, L747S)
T26 construct: expressed in transfected cells; host or cells: Ba/F3
Protocol: as §4, §2, §5

[27] = molecular target: T27, EGFR L858R/T790M/L718Q (Homo sapiens, UniProt P00533, L718Q/L858R/T790M); settings: T790M-like-3R, 72 hours
T27 construct: expressed in transfected cells; host or cells: Ba/F3

SMILES | ratio of IC50 for cells with mutant EGFR to IC50 for cells with wildtype EGFR (Mut/WT) [1] | ratio of IC50 for cells with mutant EGFR to IC50 for cells with wildtype EGFR (Mut/WT) [3] | ratio of IC50 for cells with mutant EGFR to IC50 for cells with wildtype EGFR (Mut/WT) [6] | ratio of IC50 for cells with mutant EGFR to IC50 for cells with wildtype EGFR (Mut/WT) [7] | ratio of IC50 for cells with mutant EGFR to IC50 for cells with wildtype EGFR (Mut/WT) [8] | ratio of IC50 for cells with mutant EGFR to IC50 for cells with wildtype EGFR (Mut/WT) [9] | ratio of IC50 for cells with mutant EGFR to IC50 for cells with wildtype EGFR (Mut/WT) [10] | ratio of IC50 for cells with mutant EGFR to IC50 for cells with wildtype EGFR (Mut/WT) [12] | ratio of IC50 for cells with mutant EGFR to IC50 for cells with wildtype EGFR (Mut/WT) [14] | ratio of IC50 for cells with mutant EGFR to IC50 for cells with wildtype EGFR (Mut/WT) [15] | ratio of IC50 for cells with mutant EGFR to IC50 for cells with wildtype EGFR (Mut/WT) [16] | ratio of IC50 for cells with mutant EGFR to IC50 for cells with wildtype EGFR (Mut/WT) [17] | ratio of IC50 for cells with mutant EGFR to IC50 for cells with wildtype EGFR (Mut/WT) [19] | ratio of IC50 for cells with mutant EGFR to IC50 for cells with wildtype EGFR (Mut/WT) [20] | ratio of IC50 for cells with mutant EGFR to IC50 for cells with wildtype EGFR (Mut/WT) [21] | ratio of IC50 for cells with mutant EGFR to IC50 for cells with wildtype EGFR (Mut/WT) [22] | ratio of IC50 for cells with mutant EGFR to IC50 for cells with wildtype EGFR (Mut/WT) [23] | ratio of IC50 for cells with mutant EGFR to IC50 for cells with wildtype EGFR (Mut/WT) [24] | further results
CNC(=O)CN1CCC(Oc2cc3c(Nc4cccc(Cl)c4F)ncnc3cc2OC)CC1 [Sapatinib] | 0.3137 | 66.82 | 0.006619 | 0.00667 | 0.0006817 | 2.666 | 0.02084 | 26.15 | 0.001889 | 54.78 | 0.004664 | 2.233 | 17.13 | 0.06664 | 0.002811 | 1.265 | 5.022 | 10.73 | ratio of IC50 for cells with mutant EGFR to IC50 for cells with wildtype EGFR (Mut/WT) ([2]; PACC, R776H, Ba/F3, 72 hours): 0.001939; ratio of IC50 for cells with mutant EGFR to IC50 for cells with wildtype EGFR (Mut/WT) ([4]; PACC, Ex19del G796S, Ba/F3, 72 hours): 3.423; ratio of IC50 for cells with mutant EGFR to IC50 for cells with wildtype EGFR (Mut/WT) ([5]; PACC, Ex19del G724S, Ba/F3, 72 hours): 27.39; ratio of IC50 for cells with mutant EGFR to IC50 for cells with wildtype EGFR (Mut/WT) ([11]; PACC, Ex19del T854I, Ba/F3, 72 hours): 0.2548; ratio of IC50 for cells with mutant EGFR to IC50 for cells with wildtype EGFR (Mut/WT) ([13]; PACC, Ex19del/C797S, Ba/F3, 72 hours): 0.0006085; ratio of IC50 for cells with mutant EGFR to IC50 for cells with wildtype EGFR (Mut/WT) ([18]; PACC, Ex19del L718V, Ba/F3, 72 hours): 0.08016; ratio of IC50 for cells with mutant EGFR to IC50 for cells with wildtype EGFR (Mut/WT) [25]: 7.978; ratio of IC50 for cells with mutant EGFR to IC50 for cells with wildtype EGFR (Mut/WT) ([26]; PACC, L747S, Ba/F3, 72 hours): 0.005189
C=CC(=O)Nc1cc(Nc2ncc(C(=O)OC(C)C)c(-c3cn(C)c4ccccc34)n2)c(OC)cc1N(C)CCN(C)C [TAK-788 (mobocertinib), mobocertinib] | 0.473 | 134.7 | 1.233 | 1.082 | 0.0472 | 0.2515 | 0.008356 | 3.12 | 0.006056 | 43.09 | 0.111 | 1.553 | 117.8 | 0.001484 | 0.3102 | 0.2952 | 1.211 | 0.2391 | ratio of the IC50 value for cells with a PACC EGFR mutation to the IC50 value for cells with wildtype EGFR ([2]; Ba/F3 cells, EGFR R776H (PACC), Mut/WT): 2.853; ratio of the IC50 value for cells with a PACC EGFR mutation to the IC50 value for cells with wildtype EGFR ([4]; Ba/F3 cells, EGFR Ex19del G796S (PACC), Mut/WT): 32.48; ratio of the IC50 value for cells with a PACC EGFR mutation to the IC50 value for cells with wildtype EGFR ([5]; Ba/F3 cells, EGFR Ex19del G724S (PACC), Mut/WT): 3.682; ratio of the IC50 value for cells with a PACC EGFR mutation to the IC50 value for cells with wildtype EGFR ([11]; Ba/F3 cells, EGFR Ex19del T854I (PACC), Mut/WT): 4.794; ratio of the IC50 value for cells with a PACC EGFR mutation to the IC50 value for cells with wildtype EGFR ([13]; Ba/F3 cells, EGFR Ex19del/C797S (PACC), Mut/WT): 43.27; ratio of IC50 for cells with mutant EGFR to IC50 for cells with wildtype EGFR (Mut/WT) [27]: 149.2; ratio of the IC50 value for cells with a PACC EGFR mutation to the IC50 value for cells with wildtype EGFR ([18]; Ba/F3 cells, EGFR Ex19del L718V (PACC), Mut/WT): 1.296; ratio of the IC50 value for cells with a PACC EGFR mutation to the IC50 value for cells with wildtype EGFR ([26]; Ba/F3 cells, EGFR L747S (PACC), Mut/WT): 2.299
